Results from patent publication US20250340525A1, “F[…] COMPOUND” ([…], INC., priority 2022, published 2025).

Test system: mice
Assay: Anesthetic activity: inhalation exposure of mice in a microcircuit, loss-of-righting-reflex (LORR)
Type: in vivo
Conditions: inhalation exposure to vaporized compound/air mixture circulated through microcircuit, dose not quantified
Description: A sample of the product mixture formed in Step 4 of the synthesis of Example 1, comprising both cis- and trans-isomers of TTD (the “TTD mixture”), was administered to mice via inhalation exposure in a microcircuit connected using unidirectional airflow valves to a CO2 absorbent chamber and a glass syringe. A small amount of liquid TTD mixture was transferred into the glass syringe where it volatilized. Mice were transferred to the small cylindrical chamber, and the glass syringe was connected to the microcircuit in series. […] Delivery of TTD mixture was discontinued, and the mice were allowed to recover.
Separately, the trans-isomer of TTD isolated in step 5 of Example 1 above was administered to mice via inhalation exposure in a microcircuit connected using unidirectional airflow valves to a CO2 absorbent chamber and a glass syringe. A small amount of the TTD was transferred into the glass syringe where it volatilized. Mice were transferred to the small cylindrical chamber, and the glass syringe was connected to the microcircuit in series. […] Delivery of the TTD was discontinued, and the mice were allowed to recover.

Structure (SMILES) | loss-of-righting-reflex (LORR) / anesthetic activity
FC1OC(F)(C(F)(F)F)OC1F (centres unmarked) [TTD mixture, 2,4,5-trifluoro-2-(trifluoromethyl)-1,3-dioxolane] | indicated a loss-of-righting-reflex (LORR)
F[C@@H]1OC(F)(C(F)(F)F)O[C@H]1F (relative stereo) [trans-isomer of TTD, trans-2,4,5-trifluoro-2-trifluoromethyl-1,3-dioxolane] | indicated a loss-of-righting-reflex (LORR)
